Consider seven compounds from patent US4797471A, “Peptide derivatives having an inhibitory action on hydroxylating enzymes, a process for their preparation, agents containing them, and their use” (Hoechst Aktiengesellschaft, priority 1985, dated 1989).

Each structure is given as a SMILES string.

In one assay the target is Proline hydroxylase. Kind of assay: Enzyme test: hydroxylation of underhydroxylated collagen, proline hydroxylase inhibition. Type of assay: biochemical. The following applies: 50% inhibition of the enzyme reaction; Iron(II) ions, α-ketoglutarate and ascorbate. The text has this:
(§1) The inhibitory action of the substances according to the invention, for example on collagen biosynthesis, can be tested in an enzyme test in analogy to the method of B. Peterkovsky and R. DiBlasio, Anal. Biochem. 66, 279-286 (1975). This entails enzymatic hydroxylation of underhydroxylated collagen in the presence of IronlII) ions, α-ketoglutarate and ascorbate. The enzymes which can be used are prolyl 4-hydroxylase, prolyl 3-hydroxylase or lysl hydroxylase in a cell-free test medium. The inhibitory action can also be measured in cell or tissue culture and is reported as 50% inhibition of the enzyme reaction (IC50).

The next assay has as its target Lysine hydroxylase. Description: Enzyme test: hydroxylation of underhydroxylated collagen, lysine hydroxylase inhibition. The following applies: 50% inhibition of the enzyme reaction; Iron(II) ions, α-ketoglutarate and ascorbate. Type of assay: biochemical.
Text: as §1

Usually IC50 stands for the concentration needed to halve the response being measured. Consider `CC(=O)N[C@@H](CCCNC(=O)c1cc(O)c(O)c(O)c1)C(=O)N1CCC[C@H]1C(=O)NCC(=O)O` [Ac--Orn(3,4,5-Trihydroxybenzoyl)-Pro--Gly--OH], for which the IC50 against Proline hydroxylase came out at 29 µM; at Lysine hydroxylase, 8 µM.
For `CC(=O)N[C@@H](CCCNC(=O)c1ccc(O)c(O)c1)C(=O)N1CCC[C@H]1C(=O)NCC(=O)O` [Ac--Orn(3,4-Dihydroxybenzoyl)-Pro--Gly--OH] the same measures were 72 µM and 7 µM.
For `CC(=O)N[C@@H](CCCNC(=O)Cc1ccc(O)c(O)c1)C(=O)N1CCC[C@H]1C(=O)NCC(=O)O` [Ac--Orn(3,4-Dihydroxyphenylacetyl)-Pro--Gly--OH], in that order: 140 µM and 37 µM.
For `CC(=O)N1CCC[C@H]1C(=O)N[C@@H](CCCNC(=O)c1cc(O)c(O)c(O)c1)C(=O)NCC(=O)O` [Ac--Pro--Orn(3,4,5-Trihydroxybenzoyl)-Gly--OH], in that order: 17 µM and 26 µM.
For `CC(=O)N1CCC[C@H]1C(=O)N[C@@H](CCCNC(=O)Cc1ccc(O)c(O)c1)C(=O)NCC(=O)O` [Ac--Pro--Orn(3,4-Dihydroxyphenylacetyl)-Gly--OH], the IC50 was determined as 155 µM against Proline hydroxylase and 70 µM at Lysine hydroxylase.
Take `CC(=O)N[C@@H](CCCNC(=O)c1cccc(O)c1O)C(=O)N1CCC[C@H]1C(=O)NCC(=O)O` [Ac-Orn(2,3-dihydroxybenzoyl)-Pro-Gly-OH]: the values for the IC50 against Proline hydroxylase and at Lysine hydroxylase were 38 µM and 7 µM, respectively.
For the compound `CC(=O)N1CCC[C@H]1C(=O)N[C@@H](CCCNC(=O)c1ccc(O)c(O)c1)C(=O)NCC(=O)O` [Ac-Pro-Orn(3,4-dihydroxybenzoyl)-Bly-OH], the IC50 against Proline hydroxylase amounted to 50 µM; at Lysine hydroxylase it was 39 µM.
